Values joined by “and” are separate entries in the source; they are usually repeats but may differ in a detail not shown here. Equal entries are not always repeated. Structures can show the parent of a compound that is named as a salt.
Tested on: male ICR mice
Test: Mouse antithrombotic assay (collagen-epinephrine thromboembolic death)
Format: in vivo
Details: for ED50: ip, 30 min before i.v. collagen-epinephrine challenge, read-out: ED50 (protection from thromboembolic death)
Protocol: The method employed is similar to Myers, et al's (Proc. Soc. Exp. Biol. Med., Vol. 183, Pages 86-91, 1986) modification of the procedure of DiMinno and Silver (J. Pharmacl. Exp. Therap., Vol. 225, Pages 57-60, 1983). Male ICR mice 25 g-35 g were used in this study. Collagenreagent Horm, containing 1 mg/ml of native collagen fibrils from equine tendons suspended in isotonic glucose solution of pH 2.7 was obtained from Horm -Chemie Momchem GMBH, Munchen, Germany; Epinephrine Injection, USP 1 mg/ml was from Abbott Laboratories, North Chicago, Ill.
Rac.I.2HBr was dissolved in physiological saline and (+)-I (I-C) was dissolved in saline at pH 6.5 at a concentration which yielded the desired dosage when 10 ml/kg of the compound solution was injected intraperitoneally (i.p.) to the mouse. Control mice received 10 ml/kg of the solvent/vehicle intraperitoneally.
Thirty (30) minutes after administration of test compound, the mouse was challenged with intravenous collagen-epinephrine suspension. The procedure is as follows: Fifteen (15) minutes after i.p. administration of test compound, the mouse was given 50-60 mg/kg of pentobarbital sodium (Nembutal). About 10-12 minutes later (when the mouse was anesthetized) the jugular vein was surgically exposed in preparation for the intravenous collagen-epinephrine injection.
Thirty (30) minutes after i.p. administration of the test compound (and about 15 minutes after i.p. Nembutal) the mouse's platelets were challenged with 0.00333 ml/gm (0.10 ml/30 gm mouse) of the intravenous collagen-epinephrine suspension into the jugular vein. [The collagen-epinephrine suspension contained 0.15 mg collagen fibrils and 0.018 mg of epinephrine per ml of the suspension]. The rate of injection for the collagen-epinephrine suspension was consistent from one mouse to the next.
Graded doses of the compound were administered to mice prior to the aggregation challenge. The ED50 was determined graphically from a Probit-log plot of percent of mice protected (Probit) by each dose (log scale) of the compound. […]

## CCN(CC)C(=O)C1CCCN(Cc2ccc(CN3CCCC(C(=O)N(CC)CC)C3)cc2)C1 (racemic) [Compound I, α-α'-Bis[3-(N,N-diethyl-carbamoyl)piperidino]-p-xylene dihydrobromide]
  ED50: 104 mg/kg and 164 µmol/kg

## CCN(CC)C(=O)C1CCCN(Cc2ccc(CN3CCCC(C(=O)N(CC)CC)C3)cc2)C1 (single isomer, unassigned) [IC, α-α'-Bis(3-N,N-diethylcarbamoyl)piperidino]-p-xylene dihydrobromide]
i.p.
  Potency in protecting mice from thromboembolic death relative to racemic I.2HBr: approximately three times more potent
  ED50: 33.5 mg/kg and 71.2 µmol/kg
